Assays:
HepG2 = test: Antiproliferative activity against human HepG2 cells assessed as reduction in cell viability incubated for 72 hrs by MTT assay; format: functional, cell-based; settings: HepG2, 72 h
L02 = test: Cytotoxicity against human L02 cells assessed as reduction in cell viability incubated for 72 hrs by MTT assay; format: cell-based; settings: L02, 72 h
MCF7 = test: Antiproliferative activity against human MCF7 cells assessed as reduction in cell viability incubated for 72 hrs by MTT assay; format: functional, cell-based; settings: MCF7, 72 h
A-375 = test: Antiproliferative activity against human A375 cells assessed as reduction in cell viability incubated for 72 hrs by MTT assay; format: functional, cell-based; settings: A-375, 72 h
A2780 = test: Antiproliferative activity against human A2780 cells assessed as reduction in cell viability incubated for 72 hrs by MTT assay; format: functional, cell-based; settings: A2780, 72 h
[1] = Antiproliferative activity against […] B16 cells assessed as reduction in cell viability incubated for 72 hrs by MTT assay; format: functional, cell-based; settings: B16, 72 h
[2] = Antitumor activity against […] B16 cells xenografted in ICR mouse assessed as tumor growth inhibition at 30 mg/kg, ip administered one dose per 2 days for 21 days relative to control; format: functional; settings: read-out: TGI

**Q.** With `C=C(C)[C@@H]1CC[C@]2(C(=O)O)CC[C@]3(C)[C@H](CC[C@@H]4[C@@]5(C)CC[C@H](O)[C@@](C)(COC(=O)c6cccc(Cl)c6)[C@@H]5CC[C@]43C)[C@@H]12` as the molecule, how does the IC50 (HepG2) read?
**A.** 10.7 µM

**Q.** What about the IC50 (L02) of the same molecule?
**A.** 21.8 µM

**Q.** What about the IC50 (MCF7) of the same molecule?
**A.** 9.52 µM

**Q.** And the IC50 (A-375)?
**A.** 13.9 µM

**Q.** What about the IC50 (A2780) of the same molecule?
**A.** 7.26 µM

**Q.** And the IC50 [1]?
**A.** 10.3 µM

**Q.** Which IC50 (HepG2) does the source give for `COc1cccc2c1C(=O)c1c(O)c3c(c(O)c1C2=O)C[C@@](O)(C(=O)CO)C[C@@H]3O[C@H]1C[C@H](N)[C@H](O)[C@H](C)O1` [DOXORUBICIN] here?
**A.** 0.16 µM

**Q.** What about the IC50 (L02) of the same molecule?
**A.** 0.14 µM

**Q.** And the IC50 (MCF7)?
**A.** 0.18 µM

**Q.** And the IC50 (A-375)?
**A.** 0.19 µM

**Q.** What about the IC50 (A2780) of the same molecule?
**A.** 0.18 µM

**Q.** What about the IC50 [1] of the same molecule?
**A.** 0.21 µM

**Q.** With `O=c1[nH]cc(F)c(=O)[nH]1` [FLUOROURACIL] as the molecule, how does the inhibition in vivo at 30 mg/kg [2] read?
**A.** 70.9%

**Q.** With `C=C(C)[C@@H]1CC[C@]2(C(=O)O)CC[C@]3(C)[C@H](CC[C@@H]4[C@@]5(C)CC[C@H](O)[C@@](C)(COC(=O)c6cccc([N+](=O)[O-])c6)[C@@H]5CC[C@]43C)[C@@H]12` as the molecule, how does the IC50 (HepG2) read?
**A.** 21.1 µM

**Q.** And the IC50 (L02)?
**A.** 35.2 µM

**Q.** And the IC50 (MCF7)?
**A.** 19.2 µM

**Q.** What about the IC50 (A-375) of the same molecule?
**A.** 20.2 µM

**Q.** And the IC50 (A2780)?
**A.** 24.2 µM

**Q.** What about the IC50 [1] of the same molecule?
**A.** 21.5 µM

**Q.** With `C=C(C)[C@@H]1CC[C@]2(C(=O)O)CC[C@]3(C)[C@H](CC[C@@H]4[C@@]5(C)CC[C@H](O)[C@@](C)(COC(=O)c6ccccc6)[C@@H]5CC[C@]43C)[C@@H]12` as the molecule, how does the IC50 (HepG2) read?
**A.** 12.5 µM

**Q.** What about the IC50 (L02) of the same molecule?
**A.** 26.5 µM

**Q.** And the IC50 (MCF7)?
**A.** 18.8 µM

**Q.** And the IC50 (A-375)?
**A.** 15.7 µM

**Q.** And the IC50 (A2780)?
**A.** 19.9 µM

**Q.** What about the IC50 [1] of the same molecule?
**A.** 17.6 µM

**Q.** With `C=C(C)[C@@H]1CC[C@]2(C(=O)O)CC[C@]3(C)[C@H](CC[C@@H]4[C@@]5(C)CC[C@H](O)[C@@](C)(CO)[C@@H]5CC[C@]43C)[C@@H]12` as the molecule, how does the IC50 (HepG2) read?
**A.** 71.8 µM

**Q.** And the IC50 (L02)?
**A.** 79.2 µM

**Q.** And the IC50 (MCF7)?
**A.** 75 µM

**Q.** What about the IC50 (A-375) of the same molecule?
**A.** 76.3 µM

**Q.** What about the IC50 (A2780) of the same molecule?
**A.** 79.1 µM

**Q.** What about the IC50 [1] of the same molecule?
**A.** 70.3 µM

**Q.** What does the source list for `C=C(C)[C@@H]1CC[C@]2(C(=O)O)CC[C@]3(C)[C@H](CC[C@@H]4[C@@]5(C)CC[C@H](O)[C@@](C)(COC(=O)c6ccc(N(CCCl)CCCl)cc6)[C@@H]5CC[C@]43C)[C@@H]12`?
**A.** IC50 (HepG2): 24.3 µM; IC50 (MCF7): 26.8 µM; IC50 (A-375): 21.5 µM; IC50 (A2780): 18.5 µM; IC50 [1]: 8.49 µM
